# Measurements reported in ChEMBL document CHEMBL5154644, “Design, Synthesis, and Structure-Activity Relationship Optimization of Pyrazolopyrimidine Amide Inhibitors of Phosphoinositide 3-Kinase γ (PI3Kγ)” (J Med Chem, 2022).
# Active and inactive are the calls of the source. The calls are words filed in the database; no cut-off is given here.
# Columns and labels:
# Homo sapiens [1] = species on record: Homo sapiens; test: Selectivity ratio of IC50 for inhibition of PI3Kalpha (unknown origin) to IC50 for inhibition of PI3Kgamma (unknown origin)
# [2] = target: T1, Phosphatidylinositol 4,5-bisphosphate 3-kinase catalytic subunit gamma isoform (Homo sapiens, UniProt P48736); test: Inhibition of P13Kgamma in LPS and IFNgamma stimulated human M1 macrophage assessed as increase in IL6 expression at 1 uM pretreated for 1 hr followed by LPS and IFNgamma stimulation by qRT-PCR analysis; type: cell-based
# Target sequence in this assay (P48736 whole entry, looked up, canonical isoform): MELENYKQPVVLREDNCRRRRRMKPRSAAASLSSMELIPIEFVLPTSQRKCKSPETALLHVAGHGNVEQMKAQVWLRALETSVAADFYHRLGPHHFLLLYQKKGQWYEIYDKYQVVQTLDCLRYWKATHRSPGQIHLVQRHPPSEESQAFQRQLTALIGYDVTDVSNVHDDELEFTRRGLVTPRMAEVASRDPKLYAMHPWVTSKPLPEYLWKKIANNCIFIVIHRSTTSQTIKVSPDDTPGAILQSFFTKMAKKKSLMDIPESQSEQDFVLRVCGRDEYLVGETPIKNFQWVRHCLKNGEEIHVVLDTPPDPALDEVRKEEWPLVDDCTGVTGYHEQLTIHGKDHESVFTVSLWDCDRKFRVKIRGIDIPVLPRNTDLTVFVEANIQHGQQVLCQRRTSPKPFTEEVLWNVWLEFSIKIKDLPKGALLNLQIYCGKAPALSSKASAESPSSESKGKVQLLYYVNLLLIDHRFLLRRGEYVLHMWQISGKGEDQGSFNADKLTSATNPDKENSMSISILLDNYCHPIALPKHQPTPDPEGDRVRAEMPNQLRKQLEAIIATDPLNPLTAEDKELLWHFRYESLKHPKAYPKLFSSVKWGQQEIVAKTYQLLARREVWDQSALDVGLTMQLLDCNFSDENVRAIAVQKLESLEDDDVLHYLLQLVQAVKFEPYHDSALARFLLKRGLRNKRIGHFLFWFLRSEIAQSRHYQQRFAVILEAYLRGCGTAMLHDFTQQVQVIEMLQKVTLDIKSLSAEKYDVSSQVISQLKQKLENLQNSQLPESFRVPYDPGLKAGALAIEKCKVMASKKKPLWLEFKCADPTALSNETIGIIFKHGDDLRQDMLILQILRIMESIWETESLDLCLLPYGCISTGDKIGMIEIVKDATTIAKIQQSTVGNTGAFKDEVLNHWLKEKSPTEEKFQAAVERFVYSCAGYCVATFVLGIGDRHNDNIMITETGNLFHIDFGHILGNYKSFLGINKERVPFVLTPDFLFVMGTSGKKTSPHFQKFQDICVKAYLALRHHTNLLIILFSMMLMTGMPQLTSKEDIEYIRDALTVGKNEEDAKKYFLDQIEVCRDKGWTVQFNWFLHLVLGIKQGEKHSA
# [3] = Metabolic stability in human hepatocytes assessed as parent compound remaining at 0.5 uM measured after 2 hrs by LC-MS/MS analysis; type: ADME, cell-based, Hepatocyte
# [4] = Apparent permeability of the compound across apical to basolateral side in human Caco-2 cells; type: toxicity, cell-based; details: in vivo, 100 mg/kg, 168 h, time 7 day
# Cytochrome P450 2C9 = Cytochrome P450 2C9 (Homo sapiens, UniProt P11712); test: Time dependent inhibition of CYP2C9 in human liver microsomes at 40 uM using diclofenac as substrate measured after 5 to 20 mins in presence of NADPH by LC/MS/MS analysis; type: ADME, Microsome
# Cytochrome P450 2C9, sequence (P11712 whole entry): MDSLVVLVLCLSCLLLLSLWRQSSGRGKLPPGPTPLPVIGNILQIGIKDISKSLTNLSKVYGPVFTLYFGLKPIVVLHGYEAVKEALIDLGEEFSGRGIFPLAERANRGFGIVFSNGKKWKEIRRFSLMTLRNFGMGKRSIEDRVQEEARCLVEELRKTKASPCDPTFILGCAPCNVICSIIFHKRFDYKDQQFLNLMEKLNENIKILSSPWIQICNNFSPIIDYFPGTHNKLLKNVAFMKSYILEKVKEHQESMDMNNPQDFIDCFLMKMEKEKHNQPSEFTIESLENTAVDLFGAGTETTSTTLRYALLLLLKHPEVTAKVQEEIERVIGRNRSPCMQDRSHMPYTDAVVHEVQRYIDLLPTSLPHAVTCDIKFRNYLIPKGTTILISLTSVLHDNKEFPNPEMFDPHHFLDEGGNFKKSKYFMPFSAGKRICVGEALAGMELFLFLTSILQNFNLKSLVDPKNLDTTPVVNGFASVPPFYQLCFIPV
# [5] = Oral bioavailability in Sprague-Dawley rat at 10 mg/kg measured up to 24 hrs by LC-MS/MS analysis; type: ADME, organism-based; details: in vivo
# [6] = Half life in Beagle dog at 1 mg/kg, iv; type: ADME, organism-based, Canis lupus familiaris; details: in vivo
# [7] = Volume of distribution at steady state in C57BL/6 mouse at 0.5 mg/kg, iv; type: ADME, organism-based; details: in vivo
# [8] = target: Phosphatidylinositol 4,5-bisphosphate 3-kinase catalytic subunit beta isoform (Homo sapiens, UniProt P42338); test: Inhibition of PI3Kbeta (unknown origin) using PIP2 as substrate preincubated for 1 hr followed by substrate addition and measured after 60 mins in presence of ATP by ADP-glo assay
# Phosphatidylinositol 4,5-bisphosphate 3-kinase catalytic subunit beta isoform, sequence (P42338 whole entry, canonical isoform): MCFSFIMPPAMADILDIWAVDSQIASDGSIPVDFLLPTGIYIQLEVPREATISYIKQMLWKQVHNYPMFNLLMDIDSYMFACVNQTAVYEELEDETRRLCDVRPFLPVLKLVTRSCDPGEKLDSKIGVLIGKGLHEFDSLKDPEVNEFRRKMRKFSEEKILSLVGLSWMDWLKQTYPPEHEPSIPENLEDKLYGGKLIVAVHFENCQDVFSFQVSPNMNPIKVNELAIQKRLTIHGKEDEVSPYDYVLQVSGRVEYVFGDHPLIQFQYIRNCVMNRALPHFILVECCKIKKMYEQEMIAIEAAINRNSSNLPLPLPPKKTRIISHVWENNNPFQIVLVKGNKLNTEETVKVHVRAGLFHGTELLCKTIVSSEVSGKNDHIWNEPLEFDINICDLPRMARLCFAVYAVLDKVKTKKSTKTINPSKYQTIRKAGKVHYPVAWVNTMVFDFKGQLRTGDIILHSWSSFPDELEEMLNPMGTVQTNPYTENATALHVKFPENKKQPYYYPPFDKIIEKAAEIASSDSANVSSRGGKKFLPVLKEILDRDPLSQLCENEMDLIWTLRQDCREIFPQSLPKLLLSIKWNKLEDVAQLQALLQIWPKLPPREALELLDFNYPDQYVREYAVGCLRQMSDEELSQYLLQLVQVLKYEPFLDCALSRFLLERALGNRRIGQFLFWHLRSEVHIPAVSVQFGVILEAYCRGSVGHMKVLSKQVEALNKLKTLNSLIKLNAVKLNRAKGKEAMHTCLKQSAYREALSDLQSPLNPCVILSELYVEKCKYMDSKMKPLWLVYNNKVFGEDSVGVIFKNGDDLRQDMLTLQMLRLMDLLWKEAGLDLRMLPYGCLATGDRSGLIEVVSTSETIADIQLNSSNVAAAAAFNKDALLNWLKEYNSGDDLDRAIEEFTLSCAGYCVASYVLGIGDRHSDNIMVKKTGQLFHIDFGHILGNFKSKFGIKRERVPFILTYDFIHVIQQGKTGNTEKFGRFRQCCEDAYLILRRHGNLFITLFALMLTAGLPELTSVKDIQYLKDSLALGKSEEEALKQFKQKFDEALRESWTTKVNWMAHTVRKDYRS
# Cytochrome P450 2C19 = Cytochrome P450 2C19 (Homo sapiens, UniProt P33261); test: Time dependent inhibition of CYP2C19 in human liver microsomes at 40 uM using (S)-mephenytoin as substrate measured after 5 to 20 mins in presence of NADPH by LC/MS/MS analysis; type: ADME, Microsome
# [9] = target: T1, Phosphatidylinositol 4,5-bisphosphate 3-kinase catalytic subunit gamma isoform; test: Inhibition of P13Kgamma in LPS and IFNgamma stimulated human M1 macrophage assessed as increase in IL12B expression at 1 uM pretreated for 1 hr followed by LPS and IFNgamma stimulation by qRT-PCR analysis; type: cell-based
# Target sequence in this assay (P48736 whole entry, looked up, canonical isoform): as the sequence (P48736 whole entry, looked up, canonical isoform) above
# [10] = MRT (infinity) in C57BL/6 mouse at 0.5 mg/kg, iv; type: ADME, organism-based; details: in vivo
# [11] = Metabolic stability in rat hepatocyte assessed as intrinsic clearance per 10^8 cells at 0.5 uM by LC-MS/MS analysis; type: ADME, cell-based; details: hepatocytes
# Cytochrome P450 3A4 = Cytochrome P450 3A4 (Homo sapiens, UniProt P08684); test: Time dependent inhibition of CYP3A4 in human liver microsomes at 40 uM using midazolam as substrate measured after 5 to 20 mins in presence of NADPH by LC/MS/MS analysis; type: ADME, Microsome
# Cytochrome P450 3A4, sequence (P08684 whole entry): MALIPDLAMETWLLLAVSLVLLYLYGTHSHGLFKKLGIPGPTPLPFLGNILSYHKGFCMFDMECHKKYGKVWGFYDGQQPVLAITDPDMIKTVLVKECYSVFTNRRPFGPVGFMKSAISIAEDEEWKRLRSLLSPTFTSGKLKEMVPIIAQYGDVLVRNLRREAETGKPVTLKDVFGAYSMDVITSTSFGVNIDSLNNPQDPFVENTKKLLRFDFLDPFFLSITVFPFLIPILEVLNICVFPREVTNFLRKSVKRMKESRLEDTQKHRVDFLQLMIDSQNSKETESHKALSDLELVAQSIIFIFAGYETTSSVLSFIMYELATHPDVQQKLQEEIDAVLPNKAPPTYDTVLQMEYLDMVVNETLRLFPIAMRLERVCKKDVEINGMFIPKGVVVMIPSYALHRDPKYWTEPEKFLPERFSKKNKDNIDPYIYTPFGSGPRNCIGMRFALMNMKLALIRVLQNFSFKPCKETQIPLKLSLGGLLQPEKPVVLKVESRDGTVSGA
# [12] = target: Voltage-gated inwardly rectifying potassium channel KCNH2 (Homo sapiens, UniProt Q12809); test: Inhibition of human ERG by patch clamp assay; type: toxicity
# Voltage-gated inwardly rectifying potassium channel KCNH2, sequence (Q12809 whole entry, canonical isoform): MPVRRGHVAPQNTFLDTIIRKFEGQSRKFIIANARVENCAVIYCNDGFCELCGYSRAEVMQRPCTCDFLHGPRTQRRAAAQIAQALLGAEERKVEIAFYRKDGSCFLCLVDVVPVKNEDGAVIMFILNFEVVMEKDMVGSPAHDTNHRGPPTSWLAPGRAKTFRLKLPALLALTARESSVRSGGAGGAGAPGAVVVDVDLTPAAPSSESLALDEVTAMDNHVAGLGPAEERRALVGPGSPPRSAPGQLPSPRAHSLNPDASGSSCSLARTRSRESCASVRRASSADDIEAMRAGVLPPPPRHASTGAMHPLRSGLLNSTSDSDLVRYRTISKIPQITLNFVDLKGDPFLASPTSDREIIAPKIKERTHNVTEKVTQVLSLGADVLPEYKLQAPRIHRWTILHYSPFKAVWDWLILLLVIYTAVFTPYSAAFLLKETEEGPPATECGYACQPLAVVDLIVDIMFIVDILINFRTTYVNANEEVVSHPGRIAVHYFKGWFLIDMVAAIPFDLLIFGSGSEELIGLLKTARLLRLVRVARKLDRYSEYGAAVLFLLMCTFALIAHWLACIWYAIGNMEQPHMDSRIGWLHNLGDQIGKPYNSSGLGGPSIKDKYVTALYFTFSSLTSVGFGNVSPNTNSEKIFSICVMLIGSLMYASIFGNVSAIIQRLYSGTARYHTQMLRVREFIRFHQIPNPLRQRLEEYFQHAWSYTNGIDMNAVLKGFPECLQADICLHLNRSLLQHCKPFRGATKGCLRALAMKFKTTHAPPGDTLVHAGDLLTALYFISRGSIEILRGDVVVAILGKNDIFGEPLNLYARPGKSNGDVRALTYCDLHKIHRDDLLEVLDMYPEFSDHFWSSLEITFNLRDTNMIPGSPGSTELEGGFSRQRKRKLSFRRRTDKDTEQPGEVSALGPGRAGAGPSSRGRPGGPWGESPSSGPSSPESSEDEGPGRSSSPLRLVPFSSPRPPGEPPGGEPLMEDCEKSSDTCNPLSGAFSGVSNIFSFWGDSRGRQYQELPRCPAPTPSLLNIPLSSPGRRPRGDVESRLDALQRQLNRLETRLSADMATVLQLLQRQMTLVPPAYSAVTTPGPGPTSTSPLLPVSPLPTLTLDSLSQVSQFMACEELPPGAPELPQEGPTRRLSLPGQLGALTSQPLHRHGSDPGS
# [13] = target: T1, Phosphatidylinositol 4,5-bisphosphate 3-kinase catalytic subunit gamma isoform; test: Inhibition of PI3Kgamma (unknown origin) at 10 uM using PIP2 as substrate preincubated for 60 mins followed by substrate addition and measured after 45 mins in presence of ATP by TR-FRET analysis
# Target sequence in this assay (P48736 whole entry, canonical isoform): as the sequence (P48736 whole entry, looked up, canonical isoform) above
# Cytochrome P450 2C8 = target: T2, Cytochrome P450 2C8 (Homo sapiens, UniProt P10632); test: Time dependent inhibition of CYP2C8 in human liver microsomes at 40 uM measured after 5 to 20 mins in presence of NADPH by LC/MS/MS analysis; type: ADME, Microsome
# T2 sequence (P10632 whole entry): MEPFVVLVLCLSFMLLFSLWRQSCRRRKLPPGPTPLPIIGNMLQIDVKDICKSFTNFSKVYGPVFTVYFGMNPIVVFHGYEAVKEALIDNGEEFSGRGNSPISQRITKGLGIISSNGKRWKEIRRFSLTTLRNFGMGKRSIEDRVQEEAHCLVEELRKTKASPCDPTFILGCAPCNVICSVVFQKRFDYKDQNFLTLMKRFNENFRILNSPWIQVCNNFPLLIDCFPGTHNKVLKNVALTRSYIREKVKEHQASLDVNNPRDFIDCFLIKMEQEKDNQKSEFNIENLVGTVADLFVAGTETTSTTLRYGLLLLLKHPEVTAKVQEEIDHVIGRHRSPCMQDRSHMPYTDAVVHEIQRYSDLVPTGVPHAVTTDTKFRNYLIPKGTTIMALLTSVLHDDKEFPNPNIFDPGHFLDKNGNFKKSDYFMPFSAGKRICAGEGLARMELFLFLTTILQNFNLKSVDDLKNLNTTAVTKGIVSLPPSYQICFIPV
# Cytochrome P450 2D6 = Cytochrome P450 2D6 (Homo sapiens, UniProt P10635); test: Time dependent inhibition of CYP2D6 in human liver microsomes at 40 uM using dextromethorphan as substrate measured after 5 to 20 mins in presence of NADPH by LC/MS/MS analysis; type: ADME, Microsome
# Cytochrome P450 2D6, sequence (P10635 whole entry): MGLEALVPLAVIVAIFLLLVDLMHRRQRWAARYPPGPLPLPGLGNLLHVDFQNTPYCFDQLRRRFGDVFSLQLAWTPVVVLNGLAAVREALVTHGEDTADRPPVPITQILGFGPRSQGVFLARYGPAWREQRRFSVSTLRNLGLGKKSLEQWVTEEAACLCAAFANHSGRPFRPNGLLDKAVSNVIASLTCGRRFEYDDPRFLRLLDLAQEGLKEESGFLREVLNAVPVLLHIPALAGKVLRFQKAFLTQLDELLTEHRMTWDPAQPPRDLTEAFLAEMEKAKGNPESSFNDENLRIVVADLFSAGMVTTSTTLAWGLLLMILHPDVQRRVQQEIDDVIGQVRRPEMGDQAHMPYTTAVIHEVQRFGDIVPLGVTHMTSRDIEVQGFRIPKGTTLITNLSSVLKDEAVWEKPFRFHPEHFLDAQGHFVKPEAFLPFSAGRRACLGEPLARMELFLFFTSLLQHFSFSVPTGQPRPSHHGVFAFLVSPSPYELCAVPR
# [14] = AUC(0 to infinity) in Beagle dog at 1 mg/kg, iv; type: ADME, organism-based, Canis lupus familiaris; design: time infinity, dose 1 mg/kg, route iv; details: in vivo
# Homo sapiens [15] = species on record: Homo sapiens; test: Selectivity ratio of IC50 for inhibition of PI3Kbeta (unknown origin) to IC50 for inhibition of PI3Kgamma (unknown origin)
# Cytochrome P450 1A2 = target: T3, Cytochrome P450 1A2 (Homo sapiens, UniProt P05177); test: Time dependent inhibition of CYP1A2 in human liver microsomes at 40 uM using phenacetin as substrate measured after 5 to 20 mins in presence of NADPH by LC/MS/MS analysis; type: ADME, Microsome
# T3 sequence (P05177 whole entry): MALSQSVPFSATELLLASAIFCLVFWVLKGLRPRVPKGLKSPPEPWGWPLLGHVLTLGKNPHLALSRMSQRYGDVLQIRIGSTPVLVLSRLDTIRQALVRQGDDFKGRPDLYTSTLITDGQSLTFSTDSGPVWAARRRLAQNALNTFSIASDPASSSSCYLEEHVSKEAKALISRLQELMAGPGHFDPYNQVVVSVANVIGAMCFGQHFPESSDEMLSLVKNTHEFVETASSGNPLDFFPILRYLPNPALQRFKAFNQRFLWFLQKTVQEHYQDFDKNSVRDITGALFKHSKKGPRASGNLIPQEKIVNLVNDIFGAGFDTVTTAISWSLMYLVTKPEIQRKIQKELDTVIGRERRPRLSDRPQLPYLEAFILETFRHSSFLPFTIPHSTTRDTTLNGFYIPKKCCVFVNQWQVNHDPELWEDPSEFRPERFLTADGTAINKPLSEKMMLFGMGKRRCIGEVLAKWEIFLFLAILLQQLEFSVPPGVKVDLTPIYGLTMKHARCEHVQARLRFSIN
# [16] = Volume of distribution at steady state in cynomolgus monkey at 1 mg/kg, iv; type: ADME, organism-based, Macaca fascicularis; details: in vivo
# [17] = MRT (infinity) in Beagle dog at 1 mg/kg, iv; type: ADME, organism-based, Canis lupus familiaris; details: in vivo
# [18] = target: T1, Phosphatidylinositol 4,5-bisphosphate 3-kinase catalytic subunit gamma isoform; test: Inhibition of P13Kgamma in LPS and IFNgamma stimulated human M1 macrophage assessed as increase in TNFA expression at 1 uM pretreated for 1 hr followed by LPS and IFNgamma stimulation by qRT-PCR analysis; type: cell-based
# Target sequence in this assay (P48736 whole entry, looked up, canonical isoform): as the sequence (P48736 whole entry, looked up, canonical isoform) above
Ratio IC50 (Homo sapiens [1]),inhibition [2],Stability [3] [%],bioavailability [5] [%],half-life [6] [h],Vdss [7] [L/kg],IC50 [8] [µM],inhibition [9],MRT inf [10] [h],hepatocyte intrinsic clearance [11] [µL/min],AUC(0-inf) [14] [ng·h/mL],Ratio IC50 (Homo sapiens [15]),Vdss [16] [L/kg],MRT inf [17] [h],inhibition [18],Structure (SMILES),other results
657,Active,94,102,4.85,1.66,9.21,Active,1.87,2.62,1800,3680,3.69,5.92,Active,C[C@@H](C1CC1)N1Cc2cc(-c3ccn4nc(N)c(C(=O)N[C@H]5CC[C@@](C)(O)CC5)c4n3)cc(OC(F)F)c2C1=O,Activity [4]: Non-Toxic; IC50 (Cytochrome P450 2C9): > 20 µM; IC50 (Cytochrome P450 2C19): > 20 µM; IC50 (Cytochrome P450 3A4): > 20 µM; IC50 [12]: > 10 µM; Ki [13]: 0.0007 µM; IC50 (Cytochrome P450 2C8): > 20 µM; IC50 (Cytochrome P450 2D6): > 20 µM; IC50 (Cytochrome P450 1A2): > 20 µM
946,Active,58,4,3.5,2.09,29.3,Active,2.03,6.07,1240,7040,3.77,3.85,Active,C[C@@H](C1CC1)N1Cc2cc(-c3ccn4nc(N)c(C(=O)N[C@H]5CC[C@@](C)(O)CC5)c4n3)cc(OC(F)(F)F)c2C1=O,–
